The target of the experiment is T1, KRas G12V (Homo sapiens, UniProt P01116, G12V).
T1 construct: Biotinylated KRas G12V (aa 1-169) loaded with GDP nucleotide; biotin (biotinylated)
Briefly: SOS1-Catalyzed Nucleotide Exchange Assay, KRas G12V (Method 2). Format: biochemical. The following applies: 5 nM KRas G12V (aa 1-169, GDP-loaded), 50 nM SOS1. The protocol: KRas G12V [Method 2]: Compounds were pre-dispensed via Echo liquid handling (acoustic, touch-free) to generate assay ready plates (ARP). More precisely, a 10-point concentration response curve for each compound was prepared with appropriate top concentration (1 μM, 10 μM, 100 μM). Biotinylated KRas G12V (aa 1-169) loaded with GDP nucleotide and Streptavidin-Europium (SA-EU, Columbia Biosciences) were preincubated in assay buffer (20 mM HEPES pH 7.4, 150 mM NaCl, 5 mM MgCl2, 1 mM DTT, 0.01% Brij-35, 0.3 mg/mL BSA) on ice for 30 min. Separately SOS1 (aa 546-1049) and EDA-GTP-DY647P1 (Jena Bioscience) were preincubated in assay buffer on ice for 30 min. After 30 minutes of incubation for the assay components, 5 μL buffer and 5 μL of KRas G12V-SA-Eu were added to each well of the ARP. After a further 30 min, 5 μL of SOS1-EDA-GTP-D467P1 was added to start the nucleotide exchange reaction. Final concentration in the assay were 5 nM KRas G12V, 50 nM SOS1 (aa 564-1049). The reaction was allowed to proceed for 60-90 minutes after which the plate was read on a plate reader. After normalization of the raw data, the data was fit to a four-parameter logistic curve.

Setting [1] is: Method 2, B, read-out: KRas G12V IC50 (nM) (Method 2, B).
Where [2] appears, read: Method 2, A, read-out: KRas G12V IC50 (nM) (Method 2, A).

Like-named read-outs stand apart in the source and are kept apart here.

T1 sequence (P01116 1-169 G12V): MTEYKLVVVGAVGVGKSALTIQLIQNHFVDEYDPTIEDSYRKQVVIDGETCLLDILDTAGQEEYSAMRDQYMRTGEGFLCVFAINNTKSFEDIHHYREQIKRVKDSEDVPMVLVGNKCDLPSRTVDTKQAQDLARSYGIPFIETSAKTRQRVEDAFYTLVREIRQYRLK

For `Nc1cc2c(c(Cl)c1F)CCCCC(=O)NCCC1COCCN(C1)c1nc(OC[C@@]34CCCN3C[C@H](F)C4)nc3c(F)c-2ncc13` (stereo partly drawn) [Compound 185a, 3^5-amino-3^3-chloro-2^8,3^4-difluoro-2^2-(((2R,7aS)-2-fluorotetrahydro-1H-pyrrolizin-7a(5H)-yl)methoxy)-9-aza-1(4,6)-oxazepana-2(4,7)-pyrido[4,3-d]pyrimidina-3(1,2)-benzenacycloundecaphan-8-one], under setting [1], the IC50 is 100 to 1000 nM.
On to `Nc1cc2c(c(Cl)n1)CCCCC(=O)NCCC1CCCN(C1)c1nc(OC[C@@]34CCCN3C[C@H](F)C4)nc3c(F)c-2ncc13` (stereo partly drawn) [Compound 186a, 1^6-amino-1^2-chloro-2^8-fluoro-2^2-(((2R,7aS)-2-fluorotetrahydro-1H-pyrrolizin-7a(5H)-yl)methoxy)-6-aza-2(7,4)-pyrido[4,3-d]pyrimidina-1(4,3)-pyridina-3(1,3)-piperidinacycloundecaphan-7-one], for which the half-inhibitory concentration (IC50) under setting [1] was in the range of 100 to 1000 nM.
As for `Nc1cc2c(c(Cl)n1)CCCCC(=O)NCCC1(O)CCCN(C1)c1nc(OC[C@@]34CCCN3C[C@H](F)C4)nc3c(F)c-2ccc13` (stereo partly drawn) [Compound 187a, 1^6-amino-1^2-chloro-2^8-fluoro-2^2-(((2R,7aS)-2-fluorotetrahydro-1H-pyrrolizin-7a(5H)-yl)methoxy)-3^3-hydroxy-6-aza-2(7,4)-quinazolina-1(4,3)-pyridina-3(1,3)-piperidinacycloundecaphan-7-one], the IC50 under setting [1] lay in the range of 1000 to 10000 nM.
On to `Nc1cc2c3c(c(F)ccc3c1)CCCC(=O)NCCC1CCCN(C1)c1nc(OC[C@@]34CCCN3C[C@H](F)C4)nc3c(F)c-2ncc13` (stereo partly drawn) [Compound 189a, 3^3-amino-2^8,3^7-difluoro-2^2-(((2R,7aS)-2-fluorotetrahydro-1H-pyrrolizin-7a(5H)-yl)methoxy)-8-aza-2(4,7)-pyrido[4,3-d]pyrimidina-1(1,3)-piperidina-3(1,8)-naphthalenacyclodecaphan-7-one], for which the IC50 reads like this: under setting [2], 100 to 1000 nM; under setting [1], 100 to 1000 nM.
Consider `Nc1cc2c3c(c(F)ccc3c1)CCCC(=O)NCCC1CCCN(C1)c1nc(OC[C@@]34CCCN3C[C@H](F)C4)nc3c(F)c-2ccc13` (stereo partly drawn) [Compound 190a, 3^3-amino-2^8,3^7-difluoro-2^2-(((2R,7aS)-2-fluorotetrahydro-1H-pyrrolizin-7a(5H)-yl)methoxy)-8-aza-2(4,7)-quinazolina-1(1,3)-piperidina-3(1,8)-naphthalenacyclodecaphan-7-one], for which the IC50 is 100 to 1000 nM under setting [2] and 100 to 1000 nM under setting [1].
With `O=C1CCCc2c(F)ccc3cccc(c23)-c2ccc3c(nc(OC[C@@]45CCCN4C[C@H](F)C5)nc3c2F)N2CCCC(CCN1)C2` (stereo partly drawn) [Compound 191a, 2^8,3^7-difluoro-2^2-(((2R,7aS)-2-fluorotetrahydro-1H-pyrrolizin-7a(5H)-yl)methoxy)-8-aza-2(4,7)-quinazolina-1(1,3)-piperidina-3(1,8)-naphthalenacyclodecaphan-7-one], the IC50 reads like this: under setting [2], 100 to 1000 nM; under setting [1], no more than 100 nM.
Consider `Nc1cc2c3c(c(F)ccc3c1)CCCC(=O)NCC1COCCN(C1)c1nc(OC[C@@]34CCCN3C[C@H](F)C4)nc3c(F)c-2ncc13` (stereo partly drawn) [Compound 192a, 3^3-amino-2^8,3^7-difluoro-2^2-(((2R,7aS)-2-fluorotetrahydro-1H-pyrrolizin-7a(5H)-yl)methoxy)-8-aza-1(4,6)-oxazepana-2(4,7)-pyrido[4,3-d]pyrimidina-3(1,8)-naphthalenacyclononaphan-7-one], for which the IC50 is, setting by setting: under setting [2], 100 to 1000 nM; under setting [1], 100 to 1000 nM.
`O=C1CCCc2c(F)ccc3cccc(c23)-c2ncc3c(nc(OC[C@@]45CCCN4C[C@H](F)C5)nc3c2F)N2CCOCC(CN1)C2` (stereo partly drawn) [Compound 193a, 2^8,3^7-difluoro-2^2-(((2R,7aS)-2-fluorotetrahydro-1H-pyrrolizin-7a(5H)-yl)methoxy)-8-aza-1(4,6)-oxazepana-2(4,7)-pyrido[4,3-d]pyrimidina-3(1,8)-naphthalenacyclononaphan-7-one]: the IC50 was in the range of 100 to 1000 nM under setting [2] and 100 to 1000 nM under setting [1].
Consider `O=C1CCCc2c(F)ccc3cc(O)cc(c23)-c2ncc3c(nc(OC[C@@]45CCCN4C[C@H](F)C5)nc3c2F)N2CCOCC(CCN1)C2` (stereo partly drawn) [Compound 194a, 2^8,3^7-difluoro-2^2-(((2R,7aS)-2-fluorotetrahydro-1H-pyrrolizin-7a(5H)-yl)methoxy)-3^3-hydroxy-8-aza-1(4,6)-oxazepana-2(4,7)-pyrido[4,3-d]pyrimidina-3(1,8)-naphthalenacyclodecaphan-7-one], for which the IC50 reads like this: under setting [2], no more than 100 nM; under setting [1], no more than 100 nM.
Take `O=C1CCCc2c(F)ccc3cc(O)cc(c23)-c2ccc3c(nc(OC[C@@]45CCCN4C[C@H](F)C5)nc3c2F)N2CCOCC(CCN1)C2` (stereo partly drawn) [Compound 195a, 2^8,3^7-difluoro-2^2-(((2R,7aS)-2-fluorotetrahydro-1H-pyrrolizin-7a(5H)-yl)methoxy)-3^3-hydroxy-8-aza-1(4,6)-oxazepana-2(4,7)-quinazolina-3(1,8)-naphthalenacyclodecaphan-7-one]: the IC50 runs as follows: under setting [2], no more than 100 nM; under setting [1], no more than 100 nM.
Turning to `O=C1CCCCc2c(Cl)cc3[nH]ncc3c2-c2ncc3c(nc(OC[C@@]45CCCN4C[C@H](F)C5)nc3c2F)N2CCCC(CCN1)C2` (stereo partly drawn) [Compound 196a, 1^6-chloro-2^8-fluoro-2^2-(((2R,7aS)-2-fluorotetrahydro-1H-pyrrolizin-7a(5H)-yl)methoxy)-1^1H-6-aza-2(7,4)-pyrido[4,3-d]pyrimidina-1(4,5)-indazola-3(1,3)-piperidinacycloundecaphan-7-one], the IC50 under setting [1] is no more than 100 nM.
Consider `O=C1CCCCc2c(Cl)cc3[nH]ncc3c2-c2ccc3c(nc(OC[C@@]45CCCN4C[C@H](F)C5)nc3c2F)N2CCOCC(CN1)C2` (stereo partly drawn) [Compound 198a, 3^6-chloro-2^8-fluoro-2^2-(((2R,7aS)-2-fluorotetrahydro-1H-pyrrolizin-7a(5H)-yl)methoxy)-3^1H-9-aza-1(4,6)-oxazepana-2(4,7)-quinazolina-3(4,5)-indazolacyclodecaphan-8-one], for which the IC50 under setting [1] is no more than 100 nM.
Turning to `O=C1CCCCc2c(Cl)cc3[nH]ncc3c2-c2ccc3c(nc(OC[C@@]45CCCN4C[C@H](F)C5)nc3c2F)N2CCCC(O)(CCN1)C2` (stereo partly drawn) [Compound 199a, 1^6-chloro-2^8-fluoro-2^2-(((2R,7aS)-2-fluorotetrahydro-1H-pyrrolizin-7a(5H)-yl)methoxy)-3^3-hydroxy-1^1H-6-aza-2(7,4)-quinazolina-1(4,5)-indazola-3(1,3)-piperidinacycloundecaphan-7-one], the IC50 under setting [1] was no more than 100 nM.
On the same count and under the same terms, for `O=C1CCCCc2c(Cl)cc3[nH]ncc3c2-c2c(F)cc3c(nc(OC[C@@]45CCCN4C[C@H](F)C5)nc3c2F)N2CCOCC(CN1)C2` (stereo partly drawn) [Compound 200a, 3^6-chloro-2^6,2^8-difluoro-2^2-(((2R,7aS)-2-fluorotetrahydro-1H-pyrrolizin-7a(5H)-yl)methoxy)-3^1H-9-aza-1(4,6)-oxazepana-2(4,7)-quinazolina-3(4,5)-indazolacyclodecaphan-8-one] the value was no more than 100 nM; for `Nc1cc(Cl)c2c(c1)-c1ncc3c(nc(OC[C@@]45CCCN4C[C@H](F)C5)nc3c1F)N1C[C@H](F)C[C@H](C1)NC(=O)CCCC2` [Compound 201a, (1^3R,1^5R)-3^5-amino-3^3-chloro-1^5,2^8-difluoro-2^2-(((2R,7aS)-2-fluorotetrahydro-1H-pyrrolizin-7a(5H)-yl)methoxy)-9-aza-2(4,7)-pyrido[4,3-d]pyrimidina-1(1,3)-piperidina-3(1,2)-benzenacyclononaphan-8-one], 100 to 1000 nM.

Values taken from patent US20260364089A1, “PYRIDOPYRIMIDINE KRAS INHIBITORS” (Treeline Biosciences, Inc., priority 2022, published 2026).
